Article PMC7747594, “Protease-activated receptor-2 ligands reveal orthosteric and allosteric mechanisms of receptor inhibition” (Communications Biology, 2020)
“And” between values parts separate entries of the source, which are not always exact repeats. Equal values may be shown once. Ends that are not written are not given here. Peptide text beside a SMILES is read from it.

What was measured:
hPAR2 [1] = target: T1, hPAR2 (Homo sapiens, UniProt P55085); experiment: IP1 assay, agonist mode, 1321N1-hPAR2 cells; type: cell-based
T1 sequence (P55085 26-397): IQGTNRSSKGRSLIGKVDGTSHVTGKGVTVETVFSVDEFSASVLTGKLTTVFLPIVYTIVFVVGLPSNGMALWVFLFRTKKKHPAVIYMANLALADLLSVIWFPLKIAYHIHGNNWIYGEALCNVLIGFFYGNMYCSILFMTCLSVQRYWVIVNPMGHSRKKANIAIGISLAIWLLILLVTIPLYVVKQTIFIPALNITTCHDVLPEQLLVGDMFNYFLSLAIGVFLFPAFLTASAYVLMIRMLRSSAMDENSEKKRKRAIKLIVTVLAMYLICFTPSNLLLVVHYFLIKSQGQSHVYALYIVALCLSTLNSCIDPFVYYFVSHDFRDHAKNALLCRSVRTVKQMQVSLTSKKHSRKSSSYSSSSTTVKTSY

hPAR2 [2] = target: T1, hPAR2; experiment: Radiolabelled competition binding assay against [^3H]-GB110 on HEKexpi293F membranes; parameters: expressed in transfected cells
Protocol: The reaction was then filtered through 0.5% PEI-coated filter plates using a BiomekFX. The filter plate was then dried for 1 h at 50 °C. Scintillation fluid was added to each well, before reading the plate in a Microbeta reader.
(§1) Binding data were analysed using the One site – Fit Ki model in GraphPad Prism 8 (GraphPad Software) to determine binding affinity. Pharmacology in vitro potency data was analysed with a 4-parameter logistic fit using the equation y = Bottom + (Top − Bottom)/[…] where y is the response, x is the 10-logarithm of the drug concentration, Bottom is no response and Top is full response in GraphPad Prism 8 or Genedata Screener (Genedata). pEC50 and pIC50 data are presented as mean ± standard error of the mean (s.e.m.) derived from the number of independent experiments stated. Schild slope analysis was calculated using Graphpad Prism 8 Gaddum/Schild EC50 global fitting (shared model parameters between all data sets) competitive model. The most rigorous method for quantifying agonist-antagonist interactions is to globally fit the Gaddum/Shild model to all agonist dose–response curves. Schild slope quantifies the shifts in agonist response in the presence of antagonist, a Schild slope of 1 indicates the antagonist is competitive and extra-sum-of-squares F-test (p < 0.05) was used to compare the calculated Schild slope against a hypothetical Schild slope of 1. […] The relative activity was calculated using (EmaxEC50’)/(Emax’EC50) with the Hill slope help constant at 1. EC50’ and Emax’ denote the EC50 and Emax in the absence of allosteric modulator, while EC50 and Emax denote those measured in the presence of allosteric modulator. When the Hill slope = 1, the relative activity plot approaches an asymptote corresponding to the estimate of the γ value.

hPAR2 [3] = target: T1, hPAR2; experiment: β-arrestin-2 recruitment, agonist mode, U2OS-hPAR2 cells; type: cell-based
hPAR2 [4] = target: T1, hPAR2; experiment: pERK1/2 assay, agonist mode, U2OS-hPAR2 cells; type: cell-based
hPAR2 [5] = target: T1, hPAR2; experiment: Ca^2+ flux assay, agonist mode, 1321N1-hPAR2 cells; type: cell-based; settings: for Ca2+ response (Fig 2c), individual replicate values: hPAR2
Protocol: Cells were loaded with Fluo-8 NW calcium dye (AAT Bioquest) for 30 min at 37 °C before compounds in Hank’s balanced salt solution (HBSS, ThermoFisher Scientific) with 20 mM HEPES (ThermoFisher Scientific), 0.1% bovine serum albumin (BSA, Sigma) and 0.5% DMSO were added and simultaneously evaluated for changes in intracellular [Ca^2+] using FLIPR TETRA (Molecular Devices) to detect agonism. For each concentration, the difference between the maximum peak Ca^2+ response and baseline response is reported. […] Antagonism experiments were also carried out on 1321N1-PAR2[WT], 1321N1-PAR2[F154A], and 1321N1-PAR2[G157C] as described. Experiments with trypsin in 1321N1-hPAR2 cells were performed in the presence of 1 µM Vorapaxar (Chemtronica) to remove any interference of PAR1 activity. […] Antagonism experiments for CHO-hPAR2 and HT-29 cells were performed in 96-well plates at 30,000 cells/well. Cells were loaded with Fluo-3 AM calcium dye (Sigma-Aldrich) for 60 min at 37 °C in HBSS with 1% FBS, 0.2% pluronic acid, 20 mM HEPES and 2.5 mM probenecid prior to the addition of antagonist. The antagonist was pre-incubated for 60 min at 37 °C followed by the addition of bovine trypsin (30 nM) at EC80. Intracellular [Ca^2+] flux was measured using FLIPR TETRA (Molecular Devices) and the difference between the maximum peak Ca^2+ response and baseline response is reported.
as §1, with “The most rigorous method for quantifying agonist-antagonist interactions is to globally fit the Gaddum/Shild model to all agonist dose–response curves.” left out

[6] = target: human PAR2 on Flp-In CHO-hPAR2 cells (human) (UniProt P55085); experiment: time-resolved fluorescence competition binding on cells (Eu-tagged ligand, DELFIA); CHO-hPAR2 cells in 384-well plates, blocked with 2% BSA; Eu-tagged-2f-LIGRLO(dtpa)-NH2 300 nM together with competitor for 15 min; washed; DELFIA Enhancement Solution
[7] = target: human protease-activated receptor-2 (PAR2) in membranes of HEKexpi293F cells (human, UniProt P55085 26-397); experiment: radioligand binding; competition against [3H]-GB110 (25 nM) on membranes (30 µg protein per well) of HEKexpi293F cells expressing human PAR2; 2 h at room temperature; filtration; One site - Fit Ki model; settings: one partner purified

## CC[C@H](C)[C@H](NC(=O)[C@H](CC(C)C)NC(=O)[C@@H](N)CO)C(=O)NCC(=O)N[C@@H](CCCCN)C(=O)N[C@H](C(N)=O)C(C)C [SLIGKV-NH2, reference compound] (H-SLIGKV-NH2)
hPAR2 [1]
  EC50: 25.1 µM
hPAR2 [2]
  Ki: 0.468 µM
hPAR2 [2]; 2 h, read-out: specific binding of [^3H]-GB110, Fig 2b source data
  remaining binding at […]: 100% and 94.6%
hPAR2 [3]
  EC50: 12.6 µM
hPAR2 [3]; [compound],M -4.04576
  agonist response (Fig 2f), individual replicate values: 97.3808 and 92.2809 and 86.7862 and 73.31 and 95.9148 and 84.3134
hPAR2 [3]; [compound],M -4.52288
  agonist response (Fig 2f), individual replicate values: 92.9579 and 90.0884 and 64.3276 and 56.5062 and 77.8703 and 74.4284
hPAR2 [3]; [compound],M -5
  agonist response (Fig 2f), individual replicate values: 55.0604 and 54.5545 and 55.8646 and 38.6159 and 58.5041 and 56.712
hPAR2 [3]; [compound],M -5.47712
  agonist response (Fig 2f), individual replicate values: 26.8191 and 21.9568 and 32.045 and 20.5609 and 38.941 and 38.2123
hPAR2 [3]; [compound],M -5.95424
  agonist response (Fig 2f), individual replicate values: 3.59 and 16.887 and 24.5009 and 9.51 and 14.8748 and 18.3177
hPAR2 [3]; [compound],M -6.43136
  agonist response (Fig 2f), individual replicate values: -3.351 and 12.8282 and 7.2581 and 5.779 and 4.6 and 10.8974
hPAR2 [3]; [compound],M -6.90849
  agonist response (Fig 2f), individual replicate values: 4.102 and 7.728 and 1.445 and -0.0221 and 3.388 and 8.399
hPAR2 [3]; [compound],M -7.38561
  agonist response (Fig 2f), individual replicate values: 1.29 and 11.1269 and 3.313 and 3.3558 and 1.549 and 0.5881
hPAR2 [3]; [compound],M -7.86273
  agonist response (Fig 2f), individual replicate values: -1.101 and 4.782 and 4.705 and 0.01875 and -2.103 and 4.2334
hPAR2 [3]; [compound],M -8.33985
  agonist response (Fig 2f), individual replicate values: -5.551 and 2.218 and -0.6869 and -0.9848 and 0.2659 and 2.337
hPAR2 [4]
  EC50: 10 µM
hPAR2 [4]; [compound],M -4.04576
  agonist response (Fig 2e), individual replicate values: 99.6308 and 91.4672 and 59.9255 and 93.3534 and 82.1422 and 106.727 and 95.3302 and 107.361
hPAR2 [4]; [compound],M -4.52288
  agonist response (Fig 2e), individual replicate values: 97.6379 and 75.0545 and 42.279 and 78.3436 and 72.4641 and 77.8082 and 83.5277 and 91.4836
hPAR2 [4]; [compound],M -5
  agonist response (Fig 2e), individual replicate values: 31.7126 and 38.7964 and 29.9003 and 52.5593 and 35.7079 and 56.5471 and 40.6895 and 78.4826
hPAR2 [4]; [compound],M -5.47712
  agonist response (Fig 2e), individual replicate values: -6.206 and 24.6437 and 9.489 and 50.4555 and 3.733 and 21.3761 and 7.93 and 32.2657
hPAR2 [4]; [compound],M -5.95424
  agonist response (Fig 2e), individual replicate values: -12.6824 and 18.9444 and 7.502 and 22.8061 and -1.381 and 9.052 and -3.256 and 12.5644
hPAR2 [4]; [compound],M -6.43136
  agonist response (Fig 2e), individual replicate values: -23.75 and 16.3682 and -5.093 and 16.2671 and -4.436 and 12.7209 and -3.872 and 14.813
hPAR2 [4]; [compound],M -6.90849
  agonist response (Fig 2e), individual replicate values: 15.5205 and 19.768 and 3.339 and 15.6565 and 2.966 and 12.1455 and -0.4138 and 11.0577
hPAR2 [4]; [compound],M -7.38561
  agonist response (Fig 2e), individual replicate values: -7.931 and 10.0627 and -5.815 and 6.181 and -11.0844 and 9.039 and -0.4366 and 14.6989
hPAR2 [4]; [compound],M -7.86273
  agonist response (Fig 2e), individual replicate values: -16.2411 and 11.2751 and -1.735 and 6.359 and -8.732 and 10.0488 and 1.766 and 13.489
hPAR2 [4]; [compound],M -8.33985
  agonist response (Fig 2e), individual replicate values: -5.583 and 13.904 and -4.7322 and 9.728 and -8.195 and 13.5647 and -0.3681 and 7.371
hPAR2 [5]
  EC50: 1.26 µM
hPAR2 [5]; [compound],M -3.69897
  Ca2+ response (Fig 2c), individual replicate values: 103.767 and 118.778 and 97.8658 and 87.8393
hPAR2 [5]; [compound],M -4.17609
  Ca2+ response (Fig 2c), individual replicate values: 56.3274 and 105.715 and 98.496 and 100.501
hPAR2 [5]; [compound],M -4.65321
  Ca2+ response (Fig 2c), individual replicate values: 93.626 and 84.0006 and 100.043 and 97.9804
hPAR2 [5]; [compound],M -5.13033
  Ca2+ response (Fig 2c), individual replicate values: 68.0728 and 71.1667 and 73.1719 and 72.2553
hPAR2 [5]; [compound],M -5.60746
  Ca2+ response (Fig 2c), individual replicate values: 41.6601 and 53.119 and 63.0309 and 60.338
hPAR2 [5]; [compound],M -6.08458
  Ca2+ response (Fig 2c), individual replicate values: 28.1959 and 44.9832 and 36.0453 and 35.9307
hPAR2 [5]; [compound],M -6.5617
  Ca2+ response (Fig 2c), individual replicate values: 11.2941 and 18.1695 and 18.1121 and 22.4665
hPAR2 [5]; [compound],M -7.03882
  Ca2+ response (Fig 2c), individual replicate values: 4.705 and 12.8411 and -0.8522 and 3.559
hPAR2 [5]; [compound],M -7.51594
  Ca2+ response (Fig 2c), individual replicate values: -1.139 and 5.679 and 1.6687 and -1.54
hPAR2 [5]; [compound],M -7.99306
  Ca2+ response (Fig 2c), individual replicate values: -2.17 and 3.044 and 0.4082 and -4.863

## 2f-LIGRLO-NH2 (peptide)
[6]
  pKA (equilibrium dissociation constant of the orthosteric ligand): 6.1 pKA

B1: SLIGKV-NH2 (peptide)
peptide: SLIGKV-NH2
notes: also called human tethered ligand peptide; source: synthetic peptide, custom synthesised by ThermoFisher Scientific
[7]
  pKi: 6.33 pKi
